{"source": "BindingDB's records for doi:10.1021/acs.jmedchem.9b01033", "about": "(Taipei Medical University, 2020)", "assay": "Inhibition of CFD in 10% human serum assessed as reduction in alternate complement pathway-mediated hemolysis incubated for 1 hr", "data": [{"molecule": "C[C@H](NC(=O)[C@@H]1C[C@H]2C[C@H]2N1C(=O)Cn1nc(C(N)=O)c2cccnc21)c1cccc(Cl)c1F", "values": [{"measurement": "IC50", "result": 6, "unit": "nM"}]}]}
